Results reported in publication PMC10754118, “Lipophilic Nucleoside Triphosphate Prodrugs of Anti‐HIV Active Nucleoside Analogs as Potential Antiviral Compounds” (Advanced Science, 2023).
Where two headings read alike, the source gives them in different places.

Experiments:
[1] = in vitro; conditions: human
Description: The hydrolysis properties of TriPPPro‐compounds 10 and 20 were evaluated in phosphate buffer saline (PBS, pH 7.3), pig liver esterase (PLE) or CEM/0 cell extracts. In both cases, hydrolysis products were analyzed by means of analytical RP18‐HPLC and the hydrolysis half‐lives (Table 1 , t1/2 ) of TriPPPro‐compounds 10 and 20 were calculated after complete consumption of the starting materials.
The hydrolysis of TriPPPro‐compounds 10 and 20 was carried out with CEM/0 cell extracts as well. […]
Part 6. Enzyme-Catalyzed Hydrolysis of TriPPPro-compounds 10 and 20 in CEM Cell […]
First prepare 3.0 mM hydrolysis solutions of Tri PPPro-compounds 10 and 20 in DMSO and H2O: 21 µL stock solution (50 mM in DMSO) and 154 µL DMSO, and 175 µL Milli-Q water. Three-twelve different samples (20 µL 3.0 mM hydrolysis solutions) were prepared in 2 mL Eppendorf® vials. Then, aliquots of 50 µL human CEM cell extracts were added to these samples and the reaction was started. The samples were incubated at 37 °C in a thermomixer for different time periods. The reaction was stopped by addition of 150 µL MeOH and kept on ice for 5 min. After centrifugation at 14,000 rpm for 12 min, the supernatants were filtered (Chromafil RC-20/15 MS, 0.2 μm) and stored in liquid nitrogen. When testing, aliquots of 60 µL (injection volume) were analyzed by analytical HPLC (HPLC Method). The calculation of t1/2 was obtained using Origin again.
(§1) Part 7. Hydrolysis of TriPPPro-compounds 10 and 20 in human plasma.
µL 3.0 mM hydrolysis solutions) were prepared in 2 mL Eppendorf® vials.

[2] = tested on: HIV‐2 [ROD)]; experiment: Anti-HIV activity, HIV-2 in thymidine kinase-deficient CEM/TK^− cells; format: cell-based
Description: (§2) Part 9. Anti-HIV activity assay.
(§3) The produce was used as previously reported. 5 Inhibition of HIV-1(IIIB)- and HIV-2(ROD)-induced cytopathogenicity in wild-type CEM/0 and thymidine kinase-deficient CEM/TK– cell cultures was measured in […]
(§4) containing appropriate dilutions of the test compounds. After 4−5 days of incubation at 37 °C in a CO2-controlled humidified atmosphere, CEM giant (syncytium) cell formation was examined microscopically. The […]
(§5) giant cell formation by 50%.
(§6) Part 10. Primer-extension assays. […]

[3] = tested on: pig liver esterase (PLE); experiment: Hydrolysis with pig liver esterase (PLE); format: in vitro ADME; conditions: pig liver esterase (PLE) in PBS, PLE in PBS pH 7.3, 37 °C, read-out: PLE t 1/2 (converted)
Source text: Next, TriPPPro‐compounds 10 and 20 were exposed to PLE in PBS (pH 7.3) and the half‐lives of TriPPPro‐compounds 10 and 20 are listed in Table 1. […] In contrast, the cleavage of the AB (C4) masking group in TriPPPro‐compounds 10by–hy and 10bz–hz was triggered by ester hydrolysis and yielded the corresponding γ‐alkylated nucleoside triphosphate derivatives 20 (Figure 3B,D) and 21 (Figures S17 and S18, Supporting Information), respectively. […] Moreover, a very small amount of NDPs was observed, probably due to a reaction involving a nucleophilic reaction at the γ‐phosphate or γ‐phosphonate moiety (pathways d and f, Scheme 5). […]
(§7) Part 4. Chemical Hydrolysis of TriPPPro-compounds 10 and 20.
Second prepare 1.9 mM hydrolysis
Part 5. Hydrolysis of TriPPPro-compounds 10 and 20 with PLE .
Second, 125 µL DMSO and 833 µL
62.5 µL of PLE solution in PBS (100
mixture was stored in the freezer (- 30 °C).
by analytical HPLC (HPLC Method).
similar to that for the chemical hydrolysis studies. […]
(§8) Then, aliquots of 50 µL human

[4] = tested on: HIV‐2 [ROD]; experiment: Anti-HIV activity, HIV-2 in wild-type CEM/0 cells; format: cell-based; conditions: for EC50: Human immunodeficiency virus 2, CCRF-CEM, read-out: Antiviral activity CEM/0 HIV‐2 [ROD] EC50
Description: as §2, §3, §4, §5, §6

[5] = in vitro; conditions: human, CEM/0 cells (wild-type CD4+ T-cells)
Description: All TriPPPro‐compounds 10 and 20, as well as their parent nucleosides and the corresponding NTPs, were evaluated for their antiviral activity (expressed as EC50 values) against HIV‐1 (wild‐type CEM/0 cells) and HIV‐2 (wild‐type CEM/0 cells and thymidine kinase‐deficient (CEM/TK^−) cells) with concomitant determination of cytotoxicity in the same cell line (Table 3 ).

[6] = Chemical hydrolysis in phosphate buffer saline (PBS, pH 7.3); format: physicochemical; conditions: PBS pH 7.3, 37 °C, read-out: PBS pH 7.3 t 1/2 (converted)
Description: as §7
Second prepare 1.9 mM hydrolysis […]
as §8

[7] = in vitro; conditions: human, plasma
Description: First prepare 50 mM solutions of TriPPPro-compounds 10 and 20 in DMSO. […]
First prepare 3.0 mM hydrolysis solutions of Tri PPPro-compounds 10 and 20 in DMSO and H2O: 21 µL stock solution (50 mM in DMSO) and 154 µL DMSO, and 175 µL Milli-Q water. Three-twelve different samples (20 […]
The calculation of t1/2 was obtained using Origin again.
as §1
µL 3.0 mM hydrolysis solutions) were prepared in 2 mL Eppendorf® vials. Then, aliquots of 50 µL human Plasma (Heparin or Citrate) were added to these samples and the reaction was started. The samples were […]
incubated at 37 °C in a thermomixer for different time periods. The reaction was stopped by addition of 150 µL MeOH and kept on ice for 5 min. After centrifugation at 14,000 rpm for 22 min, the supernatants were filtered (Chromafil RC-20/15 MS, 0.2 μm) and stored in liquid nitrogen. When testing, aliquots of 25 0r 30 µL (injection volume) were analyzed by analytical HPLC (HPLC Method). The calculation of t1/2 was obtained using Origin […]
Part 8. Preparation of cell extracts and human plasma. […]

[8] = tested on: HIV‐1 [HE]; experiment: Anti-HIV activity, HIV-1 in wild-type CEM/0 cells; format: cell-based; conditions: for EC50: Human immunodeficiency virus 1, CCRF-CEM, read-out: Antiviral activity CEM/0 HIV‐1 [HE] EC50
[9] = Human immunodeficiency virus 2, CEM-TK(-), thymidine kinase-deficient CEM/TK^− cells, mean ±SD n = 2–3; read-out: Antiviral activity CEM/TK^− HIV‐2 [ROD)] EC50
[10] = wild-type CEM/0 cells, mean ±SD n = 2–3
[11] = t 1/2 in human plasma (over heparin and citrate plasma)
[12] = wild-type CEM/0 cells, vs parent nucleoside

Row | half-life at 0.86 mM [1] [h] | EC50 [2, 9] [nM] | half-life at 0.45 mM [3] [h] | EC50 [4, 10] [nM] | half-life at 1.9 mM [6] [days] | half-life at 0.86 mM ([7]; Plasma (Citrate) t 1/2) [h] | half-life at 0.86 mM ([7]; Plasma (Heparin) t 1/2) [h] | half-life at 0.86 mM [7, 11] [h] | EC50 [8, 10] [nM] | Structure (SMILES) | CC50 [5] [nM] | fold improved activity compared to the parent nucleoside, HIV-2 ([2]; CEM/TK^− cells, vs parent nucleoside) [fold] | fold higher activity compared to the corresponding compound 20 ([2]; HIV-2, CEM/TK^− cells, vs 20h) [fold] | improvement of antiviral activity in CEM/TK^− cells compared to wild-type CEM/0 cells ([2]; same compound, CEM/TK^− vs CEM/0) | fold improvement compared to cycloSal‐ABCMP, HIV-2 ([4]; wild-type CEM/0 cells) [fold] | fold higher activity than the parent nucleoside, HIV-2 [4, 12] [fold] | fold improvement compared to cycloSal‐ABCMP, HIV-1 ([8]; wild-type CEM/0 cells) [fold] | fold higher activity than the parent nucleoside, HIV-1 [8, 12] [fold] | EC50 ([2]; Human immunodeficiency virus 2, CEM-TK(-), read-out: Antiviral activity CEM/TK^− HIV‐2 [ROD)] EC50) [nM] | EC50 [4] [nM] | EC50 [8] [nM]
1 | 7.7 | 19 ± 1 | 1.11 | 170 ± 64 | 22.2 | 5.6 | 4.1 | 4.1 to 5.6 | 200 | CCCCCCCCCCCCCCCCCCP(=O)(OCc1ccc(OC(=O)CCCC)cc1)OP(=O)(O)OP(=O)(O)OC[C@@H]1C=C[C@H](n2cnc3c(NC4CC4)nc(N)nc32)C1 (stereo partly drawn) [10hz, γ‐(AB‐C4)‐γ‐C‐(alkyl‐C18)‐ABCTP] | 38200 ± 1300 | – | – | – | – | – | – | – | – | – | –
2 | > 30 | 290 ± 150 | > 150 | 26 ± 7 | > 83.3 | > 20 | > 20 | > 8 | 41 ± 19 | CCCCCCCCCCCCCCCCCCOP(=O)(OCCCC)OP(=O)(O)OP(=O)(O)OC[C@H]1O[C@@H](n2cc(C)c(=O)[nH]c2=O)C[C@@H]1N=[N+]=[N-] (stereo partly drawn) [10bv, γ‐(alkyl‐C4;alkyl‐C18)‐AZTTP] | 64900 | – | – | – | – | – | – | – | – | – | –
3 | 8 | 310 ± 26 | 0.25 | 7.5 ± 8.1 | 41 | 4.4 | 7.6 | 4.4 to 7.6 | 150 ± 150 | CCCCCCCCCCCCCCCCCCP(=O)(OCc1ccc(OC(=O)CCCC)cc1)OP(=O)(O)OP(=O)(O)OC[C@H]1O[C@@H](n2cc(C)c(=O)[nH]c2=O)C[C@@H]1N=[N+]=[N-] (stereo partly drawn) [10bz, γ‐(AB‐C4)‐γ‐C‐(alkyl‐C18)‐AZTTP] | 58900 | – | – | – | – | – | – | – | – | – | –
4 | 3 | 4.8 ± 2.1 | > 150 | 46 ± 16 | 10.5 | > 20 | > 8 | > 8 | 24 ± 1.4 | CCCCCCCCCCCCCCCCCCOP(=O)(OCCCC)OP(=O)(O)OP(=O)(O)OC[C@@H]1C=C[C@H](n2cnc3c(NC4CC4)nc(N)nc32)C1 (stereo partly drawn) [10hv, γ‐(C4;C18)‐ABCTP] | 39000 ± 4700 | 410 | 33 | tenfold | 16 | 80 | 30 | ~400 | – | – | –
5 | 3.3 | 500 ± 350 | 0.22 | 5.2 ± 4.1 | 17.4 | 3.7 | 5.2 | – | 190 ± 120 | CCCCCCCCCCCCCCCCCCOP(=O)(OCc1ccc(OC(=O)CCCC)cc1)OP(=O)(O)OP(=O)(O)OCC1OC(n2cc(C)c(=O)[nH]c2=O)CC1N=[N+]=[N-] (stereo not drawn) [10by, γ‐(AB‐C4;alkyl‐C18)‐AZTTP] | 60100 | – | – | – | – | – | – | – | – | – | –
6 | > 10 | 160 ± 160 | > 150 | 420 ± 110 | > 83.3 | > 20 | 4.8 | – | 260 ± 130 | CCCCCCCCCCCCCCCCCCOP(=O)(O)OP(=O)(O)OP(=O)(O)OC[C@@H]1C=C[C@H](n2cnc3c(NC4CC4)nc(N)nc32)C1 [20h, γ‐C18‐ABCTP] | > 100000 | – | – | – | – | – | – | – | – | – | –

Row | Structure (SMILES) | half-life at 0.86 mM [1] [h] | EC50 [2, 9] [nM] | half-life at 0.45 mM [3] [h] | EC50 [4, 10] [nM] | half-life at 1.9 mM [6] [days] | half-life at 0.86 mM ([7]; Plasma (Citrate) t 1/2) [h] | half-life at 0.86 mM ([7]; Plasma (Heparin) t 1/2) [h] | half-life at 0.86 mM [7, 11] [h] | EC50 [8, 10] [nM] | CC50 [5] [nM] | fold improved activity compared to the parent nucleoside, HIV-2 ([2]; CEM/TK^− cells, vs parent nucleoside) [fold] | fold higher activity compared to the corresponding compound 20 ([2]; HIV-2, CEM/TK^− cells, vs 20h) [fold] | improvement of antiviral activity in CEM/TK^− cells compared to wild-type CEM/0 cells ([2]; same compound, CEM/TK^− vs CEM/0) | fold improvement compared to cycloSal‐ABCMP, HIV-2 ([4]; wild-type CEM/0 cells) [fold] | fold higher activity than the parent nucleoside, HIV-2 [4, 12] [fold] | fold improvement compared to cycloSal‐ABCMP, HIV-1 ([8]; wild-type CEM/0 cells) [fold] | fold higher activity than the parent nucleoside, HIV-1 [8, 12] [fold] | EC50 ([2]; Human immunodeficiency virus 2, CEM-TK(-), read-out: Antiviral activity CEM/TK^− HIV‐2 [ROD)] EC50) [nM] | EC50 [4] [nM] | EC50 [8] [nM]
7 | CCCCCCCCCCCCCCCCCCP(=O)(OCCCC)OP(=O)(O)OP(=O)(O)OC[C@@H]1C=C[C@H](n2cnc3c(NC4CC4)nc(N)nc32)C1 (stereo partly drawn) [10hx] | > 10 | – | > 150 | – | > 41.7 | > 20 | > 20 | > 8 | – | 38600 | – | – | – | – | – | – | – | 5.8 | 44 ± 33 | 150 ± 140
